Laboratory results: US7504517B2, “Kv1.5 potassium channel inhibitors” (Wyeth, priority 2006, dated 2009)
Counter-ions that a name gives are not always drawn.

Tests used:
L-type calcium channels = assay: FLIPR L-Type Calcium Channel Assay; type: cell-based, murine; details: HL-1 cells expressing endogenous L-type calcium channels; calcium influx after 20 mM KCl; read-out: L-type Ca^2+ IC50
Outline: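 After a 15 min compound pre-incubation at 37 °C with 2.5 mM probenecid, L-type channels were opened by depolarising with 20 mM KCl (final). Fluorescence (488 nm excitation, 510–570 nm emission) was read for 5 min.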

Kv1.5 = target: T1, Kv1.5 (Homo sapiens, UniProt P22460); assay: Kv1.5 Patch Clamp EP; type: cell-based; details: whole cell patch clamp; for IC50: HEK or LTK- cells, at least four concentrations, n=3
T1 construct: expressed in transfected cells; host or cells: HEK or LTK- cells
T1 sequence (P22460 whole entry): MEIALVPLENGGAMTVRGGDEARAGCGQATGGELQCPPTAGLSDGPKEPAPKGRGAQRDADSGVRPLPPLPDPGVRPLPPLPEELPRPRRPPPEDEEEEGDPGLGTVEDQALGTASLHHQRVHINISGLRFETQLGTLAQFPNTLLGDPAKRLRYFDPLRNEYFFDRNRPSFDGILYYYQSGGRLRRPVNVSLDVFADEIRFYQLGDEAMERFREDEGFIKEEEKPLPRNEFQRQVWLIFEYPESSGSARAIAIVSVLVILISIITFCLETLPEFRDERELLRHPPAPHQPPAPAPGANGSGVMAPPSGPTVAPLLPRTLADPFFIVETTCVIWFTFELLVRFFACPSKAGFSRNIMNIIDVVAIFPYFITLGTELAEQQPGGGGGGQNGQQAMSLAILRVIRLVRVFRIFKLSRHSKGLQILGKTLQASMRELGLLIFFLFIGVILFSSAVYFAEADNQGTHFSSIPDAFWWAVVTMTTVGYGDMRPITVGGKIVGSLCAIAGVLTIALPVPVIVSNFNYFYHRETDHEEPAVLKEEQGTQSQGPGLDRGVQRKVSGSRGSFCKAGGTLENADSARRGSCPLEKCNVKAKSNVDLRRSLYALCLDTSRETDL
Procedure: The external solution is standard Tyrodes solution. […] Inhibition was measured at the end of the 1 second pulses and expressed relative to controls. Initial Kv1.5 inhibition is estimated by single point determinations done at 1 μM.

HERG [1] = target: T2, HERG (Homo sapiens, UniProt Q12809)
T2 sequence (Q12809 whole entry): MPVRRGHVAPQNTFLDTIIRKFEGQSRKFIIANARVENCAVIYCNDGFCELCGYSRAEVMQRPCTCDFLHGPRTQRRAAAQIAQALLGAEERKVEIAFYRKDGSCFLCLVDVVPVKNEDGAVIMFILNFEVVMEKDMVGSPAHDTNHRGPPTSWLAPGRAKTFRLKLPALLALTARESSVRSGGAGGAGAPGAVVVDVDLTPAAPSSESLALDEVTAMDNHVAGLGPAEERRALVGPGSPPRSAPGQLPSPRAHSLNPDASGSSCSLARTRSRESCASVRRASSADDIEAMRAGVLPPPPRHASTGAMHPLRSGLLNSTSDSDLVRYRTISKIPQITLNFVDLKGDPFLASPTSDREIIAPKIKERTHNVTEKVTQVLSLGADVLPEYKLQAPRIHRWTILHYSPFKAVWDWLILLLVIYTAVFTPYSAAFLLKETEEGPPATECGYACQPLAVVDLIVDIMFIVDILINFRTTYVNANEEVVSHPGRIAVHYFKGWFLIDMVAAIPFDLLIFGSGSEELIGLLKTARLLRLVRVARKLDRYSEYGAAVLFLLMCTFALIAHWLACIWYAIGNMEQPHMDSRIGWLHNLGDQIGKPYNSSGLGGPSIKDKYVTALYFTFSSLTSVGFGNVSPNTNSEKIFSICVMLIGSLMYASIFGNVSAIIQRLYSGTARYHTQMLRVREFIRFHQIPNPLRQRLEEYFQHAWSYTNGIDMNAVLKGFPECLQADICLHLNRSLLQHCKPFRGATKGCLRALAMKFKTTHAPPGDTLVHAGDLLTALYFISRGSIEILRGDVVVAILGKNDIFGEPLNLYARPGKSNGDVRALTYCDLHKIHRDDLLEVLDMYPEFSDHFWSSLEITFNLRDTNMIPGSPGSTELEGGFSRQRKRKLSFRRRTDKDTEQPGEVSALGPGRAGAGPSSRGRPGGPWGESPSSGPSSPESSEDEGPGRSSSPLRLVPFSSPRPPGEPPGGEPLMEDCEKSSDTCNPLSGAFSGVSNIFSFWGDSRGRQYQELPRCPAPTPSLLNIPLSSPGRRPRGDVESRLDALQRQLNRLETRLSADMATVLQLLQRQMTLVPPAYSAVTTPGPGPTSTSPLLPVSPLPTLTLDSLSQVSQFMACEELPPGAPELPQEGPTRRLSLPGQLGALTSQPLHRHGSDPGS
Procedure: (§1) HERG currents are recorded by the whole cell mode of patch clamp electrophysiology as described by Hamill et al.^3 HERG is stably over expressed in HEK cells. Microelectrodes are pulled from borosilicate glass (TW150) and heat polished (tip resistance, 1.5 to 3 megaohms). The external solution is standard Tyrodes solution. The internal (microelectrode) solution contained: 110 mM KCl, 5 mM K2ATP, 5 mM K4BAPTA, 1 mM MgCl2 and 10 mM HEPES, adjusted to pH 7.2 with KOH. […] Compounds are prepared as 10-20 mM DMSO stocks and diluted to appropriate test concentrations. […] Inhibition of HERG is measured at the peak of the tail currents and expressed relative to controls. Initial HERG activity is estimated by single point determinations run at 10 μM. Concentration response curves are generated for appropriate compounds utilizing at least four concentrations and an n=3. Curve fitting and IC50 estimating are done using Graphpad software (Ver. 4). • 1.

HERG [2] = target: T2, HERG; assay: HERG Patch Clamp EP; details: for inhibition at 10 µM: human, HEK cells stably overexpressing HERG
Procedure: as §1

[3] = 1.0 μM, single point, Kv1.5 stably over expressed in HEK or LTK- cells

Row | Molecule | IC50 (L-type calcium channels) | Kv1.5% inhibition @ 1.0 μM (Kv1.5; [3]) | HERG % Inhib. @ 10 μM (HERG [1]) | inhibition at 1 µM (Kv1.5; [3]) | inhibition at 10 µM (HERG [2]) | IC50 (Kv1.5) | IC50 (HERG [2])
1 | 1-(Methoxycarbonylamino)-3-[2-(4-methoxyphenyl)ethyl]-4-[4-(tert-butyl)phenyl]-2-imidazolidinone [Compound 80] | 20 µM | 77% | 51% |  |  |  | 
2 | COc1ccc(CCN2C(=O)N(NCc3cccnc3)CC2c2ccc(C)c(C)c2)cc1 (stereo not shown) [Compound 94, 1-[(Pyridin-3-ylmethyl)amino]-3-[2-(4-methoxyphenyl)ethyl]-4-(3,4-dimethylphenyl)-2-imidazolidinone] | 13 µM |  |  | 67% | 35% |  | 
3 | COc1ccc(CCN2C(=O)N(NCc3ccccc3)CC2c2ccc(C)c(C)c2)cc1 (stereo not shown) [Compound 88, 1-Benzylamino-4-(3,4-dimethylphenyl)-3-[2-(4-methoxyphenyl)ethyl]-2-imidazolidinone] | 11 µM |  |  | 94% | 90% | 0.399 µM | 
4 | COc1ccc(C2CN(NS(=O)(=O)Cc3cccnc3)C(=O)N2CCCc2ccccc2)cc1 (stereo not shown) [Compound 101, 1-[(Pyridin-3-yl)methylsulfonyl]amino-3-(3-phenylpropyl)-4-(4-methoxyphenyl)-2-imidazolidinone] | 19 µM |  |  | 81% | 24% |  | 
5 | COc1ccc(CCN2C(=O)N(NS(C)(=O)=O)C[C@H]2c2ccc(OC)cc2)cc1 [Compound 106, 1-(Methylsulfonylamino)-3-[2-(4-methoxyphenyl)ethyl]-4-(R)-(4-methoxyphenyl)-2-imidazolidinone] | 30 µM |  |  | 74% | 17% | 0.474 µM | 35 µM
6 | COc1ccc(CCN2C(=O)N(NS(=O)(=O)CC(=O)NCC3CC3)CC2c2ccc(OC)cc2)cc1 (stereo not shown) [Compound 57, 1-[[2-[(Cyclopropylmethyl)amino]-2-oxoethyl]sulfonylamino]-3-[2-(4-methoxy-phenyl)ethyl]-4-(4-methoxyphenyl)-2-imidazolidinone] | 30 µM |  |  | 66% | 12% | 0.631 µM | 12.4 µM
7 | COc1ccc(CCN2C(=O)N(NS(C)(=O)=O)CC2c2ccc(C3CC3)cc2)cc1 (stereo not shown) [Compound 28, 1-[(Methylsulfonyl)amino]-3-[(4-methoxyphenyl)ethyl]-4-(4-cyclopropylphenyl)-2-imidazolidinone] | 16 µM |  |  | 89% | 30% | 0.184 µM | 10.3 µM
8 | COc1ccc(CCN2C(=O)N(N(CCn3ccnc3)C(=O)C(C)C)CC2c2ccc(C(C)(C)C)cc2)cc1 (stereo not shown) [Compound 99, 1-N-[2-(Imidazol-1-yl)ethyl]-N-[iso-butyroyl]amino-3-[2-(4-methoxyphenyl)-ethyl]-4-[(4-tert-butyl)phenyl]-2-imidazolidinone] | 4.9 µM |  |  | 73% | 90% |  | 
9 | COc1ccc(CCN2C(=O)N(NS(=O)(=O)Cc3cccnc3)CC2c2ccc(C)cc2)cc1 (stereo not shown) [Compound 65, 1-[(Pyridin-3-yl)methylsulfonyl]amino-3-[(4-methoxyphenyl)ethyl]-4-(4-methylphenyl)-2-imidazolidinone] | 31 µM |  |  | 88% | 38% |  | 
10 | CCN(CC)c1ccc(C2CN(NS(C)(=O)=O)C(=O)N2CCc2ccc(OC)cc2)cc1 (stereo not shown) [Compound 25, 1-(Methylsulfonylamino)-3-[2-(4-methoxyphenyl)ethyl]-4-[(4-diethylamino)-phenyl]-2-imidazolidinone] | 28 µM |  |  | 84% | 31% |  | 
11 | COc1ccc(CCN2C(=O)N(N(C)S(=O)(=O)Cc3ccccc3)CC2c2ccc(C)c(C)c2)cc1 (stereo not shown) [Compound 67, 1-[(N-methyl-N-benzylsulfonyl)amino]-3-[2-(4-methoxy-phenyl)ethyl]-4-(3,4-dimethylphenyl)-2-imidazolidinone] | 8 µM |  |  | 90% | 22% |  | 
12 | COc1ccc(CCN2C(=O)N(NS(N)(=O)=O)CC2c2ccc(C)c(C)c2)cc1 (stereo not shown) [Compound 8, 1-(Aminosulfonylamino)-3-[2-(4-methoxyphenyl)ethyl]-4-(3,4-dimethylphenyl)-2-imidazolidinone] | 15 µM |  |  | 90% | 16% |  | 
13 | COc1ccc(CCN2C(=O)N(NS(=O)(=O)Cc3cccnc3)CC2c2ccc(OC)cc2)cc1 (stereo not shown) [Compound 66, 1-[(Pyridin-3-yl)methylsulfonyl]amino-3-[2-(4-methoxyphenyl)ethyl]-4-(4-methoxyphenyl)-2-imidazolidinone] | 30 µM |  |  | 86% |  | 0.257 µM | 12.6 µM
14 | COc1ccc(CCN2C(=O)N(NS(=O)(=O)Cc3cccnc3)CC2c2ccc(OC(F)F)cc2)cc1 (stereo not shown) [Compound 42, 1-[(N-3-Pyridinylmethylsulfonyl)amino]-3-[2-(4-methoxyphenyl)ethyl]-4-(4-difluoromethoxyphenyl)-2-imidazolidinone] | 20 µM |  |  | 91% | 90% | 0.418 µM | 
15 | CC(C)(C)c1ccc(C2CN(NS(C)(=O)=O)C(=O)N2CCCc2ccccc2)cc1 (stereo not shown) [Compound 47, 1-(Methylsulfonylamino)-3-(3-phenylpropyl)-4-[4-(tert-butyl)phenyl]-2-imidazolidinone] | 26 µM |  |  | 73% | 65% |  | 
16 | COc1ccc(CCN2C(=O)N(N)CC2c2ccc(C3CC3)cc2)cc1 (stereo not shown) [Compound 6, 1-Amino-3-[2-(4-methoxyphenyl)ethyl]-4-(4-cyclopropylphenyl)-2-imidazolidinone 4-methylbenzenesulfonic acid salt] | 12 µM |  |  | 53% | 29% |  | 
17 | COc1ccc(CCN2C(=O)N(NS(C)(=O)=O)C[C@@H]2c2ccc(OC)cc2)cc1 [Compound 107, N-{(4S)-4-(4-methoxyphenyl)-3-[2-(4-methoxyphenyl)ethyl]-2-oxoimidazolidin-1-yl}methanesulfonamide] | 39 µM |  |  | 41% |  | 1.1 µM | 54 µM
18 | COc1ccc(CCN2C(=O)N(NS(C)(=O)=O)CC2c2ccc(OC(F)F)cc2)cc1 (stereo not shown) [Compound 26, 1-[(Methylsulfonyl)amino]-3-[2-(4-methoxyphenyl)ethyl]-4-(4-difluoro-methoxyphenyl)-2-imidazolidinone] | 17.5 µM |  |  | 66% | 76% | 0.716 µM | 4.1 µM
19 | COc1ccc(CCN2C(=O)N(NS(=O)(=O)CC(=O)N(C)C)CC2c2ccc(C3CC3)cc2)cc1 (stereo not shown) [Compound 54, 1-[[2-(Dimethylamino)-2-oxoethyl]sulfonylamino]-3-[2-(4-methoxyphenyl)-ethyl]-4-(4-cyclopropylphenyl)-2-imidazolidinone] | 30 µM |  |  | 80% | 46% |  | 
20 | CS(=O)(=O)NN1CC(c2ccc(C3CC3)cc2)N(CCCc2ccccc2)C1=O (stereo not shown) [Compound 45, 1-(Methylsulfonylamino)-3-(3-phenylpropyl)-4-(4-cyclopropylphenyl)-2-imidazolidinone] | 16 µM |  |  | 83% | 55% |  | 
21 | COc1ccc(CCN2C(=O)N(NS(C)(=O)=O)CC2c2ccc(C(C)(C)C)cc2)cc1 (stereo not shown) [Compound 24, 1-(Methylsulfonylamino)-3-[(4-methoxyphenyl)ethyl]-4-[4-(tert-butyl)phenyl]-imidazolidinone] | 10 µM |  |  | 82% | 74% | 0.514 µM | 6.4 µM
22 | COCCN(CCOC)C(=O)CS(=O)(=O)NN1CC(c2ccc(C3CC3)cc2)N(CCc2ccc(OC)cc2)C1=O (stereo not shown) [Compound 60, 1-[[2-[(Bis(methoxyethyl)amino)]-2-oxoethyl]sulfonylamino]-3-[2-(4-methoxy-phenyl)ethyl]-4-(4-cyclopropylphenyl)-2-imidazolidinone] | 10.6 µM |  |  | 77% | 44% | 0.453 µM | 7.4 µM
23 | COc1ccc(CCN2C(=O)N(NCc3ccc(F)cc3)CC2c2ccc(C)c(C)c2)cc1 (stereo not shown) [Compound 89, 1-[(4-Fluorophenylmethyl)amino]-3-[2-(4-methoxyphenyl)ethyl]-4-(3,4-dimethylphenyl)-2-imidazolidinone] | 7.6 µM |  |  | 85% | 98% |  | 
